Columns and labels:
[1] = system: methicillin-resistant S. aureus ATCC 33591 (MRS); test: Antibacterial broth dilution assay against MRSA (modified CLSI); format: cell-based, Staphylococcus aureus; details: for MRSa IC50 / IC50: in vitro; for IC50: converted with molecular weight; for X more potent than ciprofloxacen: molar IC50 ratio versus ciprofloxacen
Method: General Experimental Procedures. All organisms were obtained from the American Type Culture Collection (Manassas, VA) and include the fungi Candida albicans ATCC 90028, C. glabrata ATCC 90030, C. krusei ATCC 6258, and Cryptococcus neoformans ATCC 90113, and the bacteria Staphylococcus aureus ATCC 29213 and methicillin-resistant S. aureus ATCC 33591 (MRS). All organisms were tested using modified versions of the CLSI (formerly NCCLS) methods. For all organisms, optical density was used to monitor growth (NCCLS, Reference Method for Broth Dilution Antifungal Susceptibility Testing of Yeasts; Approved Standard M27-A2. National Committee on Clinical Laboratory Standards, 2002 22 (15); and NCCLS, Methods for Dilution Antimicrobial Susceptibility Tests for Bacteria that Grow Aerobically; Approved Standard, Seventh Edition M7-A7. National Committee on Clinical Laboratory Standards, 2006. 26(2)).
Samples (dissolved in DMSO) were serially-diluted in 20% DMSO/saline and transferred (10 μL) in duplicate to 96 well flat bottom microplates. Inocula were prepared by correcting the OD630 of microbe suspensions in incubation broth [RPMI 1640/0.2% dextrose/0.03% glutamine/MOPS @ pH 6.0 (Cellgro) for Candida spp., Sabouraud Dextrose for C. neoformans, and cation-adjusted Mueller-Hinton (Difco) @ pH 7.3 for Staphylococcus spp. to afford an assay volume of […] and final target inocula of: Candida spp. and C. neoformans: 1.5×10^3, and Staphylococcus spp.: 5.0×10^5 CFU/ml. Final sample test concentrations were 1/100th the DMSO stock concentration. […] All organisms were read at either 530 nm using the Biotek Powerwave XS plate reader (Bio-Tek Instruments, Vermont) prior to and after incubation: Candida spp. at 35° C. for 46-50 h, Staphylococcus spp. at 35° C. for 16-20 h, and C. neoformans at 35° C. for 70-74 h. IC50s (concentrations that afford 50% inhibition relative to controls) were calculated using XLfit 4.2 software (IDBS, Alameda, CA) using fit model 201. The MIC is defined as the lowest test concentration that allows no detectable growth. Minimum fungicidal or bactericidal concentrations were determined by removing 5 μl from each clear (or blue) well, transferring to fresh media, and incubating as previously mentioned. The MFC/MBC is defined as the lowest test concentration that kills the organism (allows no growth).
Primary Analysis. Samples were tested in duplicate at one test concentration (50 μg/mL), and percent inhibitions were calculated relative to blank and growth controls. Samples showing 50% inhibition in at least one test organism were selected for dose response (Secondary) studies.
Secondary Analysis. Extracts from the Primary Assay, and first-run pure compounds and column fractions were tested in duplicate at 3 test concentrations (5-fold dilutions). Samples dissolved to 20 mg/mL in DMSO were tested at 200, 40, and 8 μg/mL. Samples dissolved to 2 mg/mL in DMSO were tested at 20, 4, and 0.8 μg/mL.

[2] = system: Cryptococcus neoformans ATCC 90113; test: Antimicrobial microdilution assay against Cryptococcus neoformans (modified CLSI/NCCLS, optical density); format: cell-based; details: for X more potent than Amphotericin B: C. neoformans, ratio of molar IC50 to Amphotericin B
Procedure, shortened: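 Fungicidal endpoint taken by subculturing 5 μL from each clear well onto agar, MFC being the lowest concentration with no regrowth. Duplicate wells of serially diluted compound (20% DMSO/saline) in RPMI pH 6.0, read at 630 nm pre- and post-incubation, under modified CLSI methods. IC50 means 50% growth inhibition against controls.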

[3] = system: S. mansoni newly transformed schistosomula (NTS); test: In vitro testing on Schistosoma mansoni newly transformed schistosomula (NTS), viability score; format: cell-based; details: for IC50: NTS, 72 hours post-incubation
Procedure, shortened: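 Mechanically transformed S. mansoni (Liberian strain) NTS, cultured overnight, exposed at 100 per well to compound (from 10 mM DMSO stock; ≤1% DMSO controls) at 37 °C, 5% CO2 for 72 h. Viability scored microscopically from 3 (normal activity, intact tegument) to 0 (dead, granulated).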

C. glabrata ATCC 90030 = test: Antifungal broth dilution assay against C. glabrata (modified CLSI); format: cell-based, Candida glabrata; details: for C. glabrata IC50 / IC50: in vitro; for IC50: converted with molecular weight; for X more potent than Amphotericin B: molar IC50 ratio versus amphotericin B
Procedure, shortened: (§1)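 Growth read by optical density at 530 nm, duplicate wells, 1% final DMSO. Staphylococcus spp.: Mueller-Hinton pH 7.3, 5.0×10^5 CFU/ml, 35 °C for 16-20 h; Candida spp.: RPMI/dextrose/glutamine/MOPS pH 6.0, 1.5×10^3 CFU/ml, 35 °C for 46-50 h. Reported values are 50% inhibition versus controls, no-growth MIC, and killing MFC/MBC.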

[4] = system: Staphylococcus aureus ATCC 29213; test: Antibacterial broth dilution assay against S. aureus (modified CLSI); format: cell-based; details: for S. aureus IC50 / IC50: in vitro; for IC50: converted with molecular weight; for X more potent than ciprofloxacen: molar IC50 ratio versus ciprofloxacen
Procedure, shortened: as §1

[5] = system: L. donovani promastigotes; test: Antileishmanial Alamar Blue assay on promastigotes; format: cell-based, Leishmania donovani; details: for X more potent than Pentamidine: L. donovani, ratio of molar IC50 to Pentamidine; for L. donovani IC50 / IC50: promastigotes, 48 hours, Alamar Blue; for IC50: read-out: L. donavani IC50
Procedure, shortened: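 Alamar Blue fluorescence (544/590 nm) quantified growth after 48 hours at 26° C of compound-treated promastigotes. Parasites were seeded at 5×10^5/mL in RPMI 1640 plus 10% FCS; drug range 50-3.1 μg/mL, and IC50 derived by plotting percent growth against test concentration.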

[6] = system: Plasmodium falciparum W2 clone (Indochina, chloroquine-resistant); test: In vitro antimalarial assay, chloroquine-resistant W2 clone; format: cell-based; details: W2 clone; for IC50: converted with molecular weight, read-out: P. falciparum W2 IC50; for X more potent than chloroquine: molar IC50 ratio versus chloroquine
Method: (§2) The compounds were assayed for in vitro antimalarial activity against the W2 clone and D6 clone of the pathogenic Plasmodium falciparum. The strains of P. falciparum were obtained from the Division of Experimental Therapeutics, Walter Reed Army Institute of Research, Washington D.C. Strains of Sierra Leon D6 and Indochina W2 are chloroquine-sensitive and chloroquine-resistant, respectively. The parasite was grown in type A human RBCs and, two strains subcultured daily with fresh medium and blood cells. On the day of the assay, a suspension of infected blood cells (2% parasitemia and 2% hematocrit) was prepared using type A human red blood cells. Assays were performed by standard 96-well flat-bottomed microplate methods and done in duplicate at different concentrations. IC50 values were obtained from the dose curves. Artemisinin and chloroquine were included in each assay as the drug controls, and DMSO was used as vehicle control. The whole protocol was developed based on the published method of Makler. The cytotoxicity assays were also performed in parallel against the Vero cells, and the selectivity index was measured. A selectivity index of >9 was considered to indicate a lead for further development of antimalarial drug.

[7] = system: Plasmodium falciparum D6 clone (Sierra Leon, chloroquine-sensitive); test: In vitro antimalarial assay, chloroquine-sensitive D6 clone; format: cell-based; details: D6 clone; for IC50: converted with molecular weight, read-out: P. falciparum D6 IC50; for X more potent than chloroquine: molar IC50 ratio versus chloroquine
Method: as §2

S. mansoni adult worms = test: In vitro tests on Schistosoma mansoni adult worms, viability score; format: cell-based
Method: All assays were prepared in compliance with the laboratory SOP described herein above. Female NMRI mice (age 3 weeks, weight ca. 14 g) were purchased from Charles River (Sulzfeld) or Harlan Laboratories (Blackthorn, United Kingdom). The animals were allowed to adapt for 1 week under controlled conditions (22° C., 50% humidity, 12 hours light, and free access to water and rodent diet) before experimental handling. To obtain adult schistosomes, NMRI mice were infected subcutaneously with 80 to 100 cercariae. After 7 to 8 weeks, the mice were euthanized with CO2, and the worms were collected from the hepatic portal and mesenteric veins. Two pairs of adult worms were placed in each well of a 24-well plate with 2 ml culture medium and the test compound. […] Worms were kept in an incubator at 37° C. and 5% CO2 for up to 72 hours. After 72 hours, worm condition was microscopically evaluated using a scale from 3 (normal activity and no tegument alteration) to 0 (dead, completely granulated). Active compounds progressed into IC50 determination. […] For the in vitro drug sensitivity assays, all viability scores were averaged across replicates and normalized to the average viability scores of the control wells (Microsoft Office Excel 2010). […]

[8] = in vitro, C. neoformans ATCC 90113

| SMILES | MRSa IC50 [1] [µg/mL] | IC50 [1] [µM] | X more potent than ciprofloxacen [1] | Effect at 72 h (%) ([3]; NTS S. mansoni, 33 μM) | S. aureus IC50 [4] [µg/mL] | IC50 [4] [µM] | X more potent than ciprofloxacen [4] | X more potent than Pentamidine [5] | L. donovani IC50 [5] [µg/mL] | P. falciparum W2 IC50 [6] [µg/mL] | IC50 [6] [µM] | X more potent than chloroquine [6] | P. falciparum D6 IC50 [7] [µg/mL] | IC50 [7] [µM] | X more potent than chloroquine [7] | other results |
| --- | --- | --- | --- | --- | --- | --- | --- | --- | --- | --- | --- | --- | --- | --- | --- | --- |
| CC(=O)[O-].CC(=O)[O-].CN1CCCN2CCN(CCCN(Cc3cccc(CN4CCCN5CCN(C)CCCN(CC5)CC4)c3)CC2)CC1.F[P-](F)(F)(F)(F)F.F[P-](F)(F)(F)(F)F.[Ni+2].[Ni+2] [CDG009, [Ni2(m-CB-Cyclams)(OAc)2][PF6]2] | 5.410 | 4.88 | 0.04 | 0.00 | 6.27 | 5.66 | 0.05 |  |  |  |  |  |  |  |  | X more potent than Amphotericin B [2]: 0.07; C. neoformans IC50 [2, 8]: 3.530 µg/mL; IC50 ([2]; in vitro, C. neoformans ATCC 90113, read-out: C. neoformans IC50 (mol/L)): 3.19 µM; C. glabrata IC50 (C. glabrata ATCC 90030): 5.150 µg/mL; IC50 (C. glabrata ATCC 90030): 4.65 µM; X more potent than Amphotericin B (C. glabrata ATCC 90030): 0.31 |
| [Cl-].[Cl-].[Mn+2].c1ccc(CN2CCCN3CCN(CCCN(Cc4ccccc4)CC3)CC2)cc1 [NS06, Mn(Bn2Bcyclam)Cl2] | 1.510 | 2.84 | 0.07 | 81.08 | 2.310 | 4.34 | 0.06 | 0.13 | 21.99 | 0.0674 | 0.127 | 5.36 | 0.0838 | 0.157 | 0.23 | IC50 [5]: 41.3 µM |
| CN1CCCN2CCN(CCCN(Cc3ccccc3)CC2)CC1.[Cl-].[Cl-].[Fe+2] [NS12] |  |  |  | 100.00 |  |  |  |  |  | 0.1164 | 0.255 | 2.67 | 0.1371 | 0.3 | 0.12 | Effect at 72 h (%) (S. mansoni adult worms; adult S. mansoni at 10 μM, 72 h): 2.08%; Effect at 72 h (%) ([3]; NTS S. mansoni at 10 μM): 100.00%; IC50 [3]: 6.69 µM |
| CN1CCCN2CCN(CCCN(Cc3ccc(CN4CCCN5CCN(C)CCCN(CC5)CC4)cc3)CC2)CC1.[Cl-].[Cl-].[Cl-].[Cl-].[Mn+2].[Mn+2] [JGL16A] | 7.770 | 9.31 | 0.02 | 5.41 | 8.090 | 9.69 | 0.03 |  |  | 0.8002 | 0.959 | 0.71 | 0.7989 | 0.957 | 0.04 | C. glabrata IC50 (C. glabrata ATCC 90030): 18.600 µg/mL; IC50 (C. glabrata ATCC 90030): 22.3 µM; X more potent than Amphotericin B (C. glabrata ATCC 90030): 0.06 |
| O=C(C1CCCCC1)N1CC(=O)N2CCc3ccccc3C2C1 (stereo not shown) [Praziquantel, reference compound] |  |  |  |  |  |  |  |  |  |  |  |  |  |  |  | IC50 (S. mansoni adult worms; Schistosoma mansoni, adult worms, 72 hours post-exposure, read-out: IC50 [μM] Adults): 0.1 µM; IC50 ([3]; Schistosoma mansoni): 2.2 µM |
| [Cl-].[Cl-].[Mn+2].c1ccc(CN2CCN3CCN(CC2)CCN(Cc2ccccc2)CC3)cc1 [NS29, Mn(Bn2Bcyclen)Cl2] | 5.750 | 11.4 | 0.02 | 43.24 | 5.880 | 11.7 | 0.02 | 0.35 | 7.70 | 0.2747 | 0.545 | 1.25 | 0.1337 | 0.265 | 0.14 | IC50 [5]: 15.3 µM |
| CC(=O)[O-].CC(=O)[O-].CN1CCCN2CCN(CCCN(Cc3cccc(CN4CCCN5CCN(C)CCCN(CC5)CC4)c3)CC2)CC1.F[P-](F)(F)(F)(F)F.F[P-](F)(F)(F)(F)F.[Zn+2].[Zn+2] [RM51, [Zn2(m-CB-Cyclams)(OAc)2][PF6]2] | 3.190 |  | 0.07 | 0.00 | 6.17 |  | 0.05 | 0.30 | 19.82 |  |  |  |  |  |  | X more potent than Amphotericin B [2]: 0.14; C. neoformans IC50 [2, 8]: 1.850 µg/mL |

Source: patent US12139481B2, “Compositions comprising macrocycle derivatives incorporating bridged macrocycles and methods of producing and using same” (Southwestern Oklahoma State University, priority 2015, dated 2024)
